Experimental findings from paper PMC11992225, “Antibacterial compounds against non-growing and intracellular bacteria” (npj Antimicrobials and Resistance, 2025) are described below.

A word on the IC50: it is the point on the concentration scale where inhibition reaches its midpoint. Low readings indicate greater potency in that assay, high ones weaker potency in that assay.

For test [1], the system named is non-growing UPEC CFT073. The test can be described thus: Dose-dependent killing analysis (CFU spot-plating) of stationary-phase UPEC. It counts as cell-based, Escherichia coli. The protocol:
To differentiate between these scenarios, we used CFU counting by agar plating to assess the bactericidal effect on non-growing bacteria. […] Conversely, if no significant reduction in CFU is observed, the regrowth delay is due to PAE without killing. […] Fluoroquinolones are known to cause PAE after treatment of growing bacterial cultures.
For survival analysis, bacteria were cultivated as described for the dose–response dilution-regrowth assay. Assays with UPEC were conducted at the CBCS screening facility using 96-well plates with a 200 μl sample volume, and compounds were dispensed using the Echo® (Labcyte) system. P. aeruginosa and S. aureus samples were treated according to the protocol used for the dilution-regrowth experiments. Treated samples were serially diluted 10-fold in PBS, and 10 μl drops were spot-plated onto rectangular LB agar plates using either a Beckman NXP robot (for UPEC) or an Integra VIAFLO96 electronic pipette (for P. aeruginosa and S. aureus). The LB agar plates were incubated overnight at 37 °C and scanned. Colonies were counted at the spots of the lowest dilution where individual colonies could be accurately distinguished. Each colony was manually marked on a separate image layer using the GNU Image Manipulation Program, and counted using NIST’s Integrated Colony Enumerator (NICE 1.4) software. The experiments were performed in three biological replicates.

In test [2] the test system is intracellular S. flexneri 5a M90T in TC7 cells. Briefly: microbe, parasite or virus in culture. The class given is cell-based, Shigella flexneri. Conditions: for IC50: Shigella flexneri, TC7, 14 h. An excerpt:
Nonproliferating bacterial pathogens frequently inhabit intracellular environments, but establishing relevant infection models for high-throughput testing is challenging. Therefore, we firstly tested ability of the hit compounds to cross the eukaryotic cytoplasmic membrane barrier and inhibit growth of S. flexneri within the cytoplasm of the TC7 human colon adenocarcinoma cell line[59]. To this end, we developed a new, fluorescence-based method that enables real-time monitoring of growth of intracellular Shigella. We used S. flexneri 5a M90T strain producing the AfaE adhesin that enhances bacterial adhesion to epithelial cells and allows synchronization of invasion. The strain was further modified to constitutively express super-folder GFP (sfGFP), which enables monitoring bacterial growth by fluorescence measurement. The epithelial cells were grown to confluence and infected with bacteria at an MOI (multiplicity of infection) of 50. […] Following bacterial adhesion and invasion, the cells were incubated with varying concentrations of the hit compounds and intracellular bacterial growth was tracked by measuring green fluorescence.
The cells were split using trypsin, seeded in 96-well plates for infection, and grown to confluence, corresponding to approximately 40,000 cells per well.
A single colony of S. flexneri was inoculated into TSB supplemented with 50 μg/ml spectinomycin and incubated overnight at 37°C with agitation. The overnight culture was diluted 1:200 in fresh TSB, and the bacteria were grown at 37 °C until the OD600 reached 0.3–0.4, corresponding to approximately 2 × 10^7 CFU/ml. Bacteria were pelleted by centrifugation, washed twice with sterile PBS, and resuspended in infection solution (serum-free DMEM supplemented with 20 mM HEPES, pH 7.4). Just prior to infection, the medium was withdrawn, and the cells were washed twice with sterile PBS. The bacterial inoculum (MOI 50, 2 × 10^7 CFU/ml) was added to all wells except the no-infection control. The plates were incubated at room temperature for 15 min to allow bacterial adhesion, followed by a 1 h incubation at 37 °C with 5% CO2 to facilitate bacterial invasion.
Twofold serial dilutions of the drugs were prepared in infection solution containing 50 μg/ml gentamicin in a 96-well plate. After the invasion period, the bacterial inoculum was removed, and the serial dilutions of the drugs were added to the wells, except for the no-drug control. […] […] The experiments were performed in triplicates on separate days.
Statistical significance of the drug effects was assessed using a one-way ANOVA followed by Dunnett’s test, comparing each treatment to the drug-free control. Statistical significance of the differences in chemical characteristics between the hit compounds and the Prestwick library was assessed using a Mann–Whitney test. Statistical significance was set at P ≤ 0.05. A five-parameter logistic equation was used for asymmetric sigmoidal curve fitting and for EC50 and IC50 determination. The Venn diagram in Fig. 1F was prepared using BioVenn web application. Characteristics of the chemical and physical properties of Prestwick library compounds were obtained from Supplementary Table S1 from reference. Characteristics of the hit compounds not included in the Prestwick library were retrieved from the PubChem database.

Setting [3] is: E. coli in 1:4 CA-MHB (pH 7.4), 0.25 μM.
The mark [4] stands for this setting: E. coli in 1:4 CA-MHB (pH 7.4), 0.5 μM.
The mark [5] stands for this setting: E. coli in 1:4 CA-MHB (pH 7.4), 1 μM.
The mark [6] stands for this setting: E. coli in 1:4 CA-MHB (pH 7.4), 2.5 μM.
[7] abbreviates: E. coli in 1:4 CA-MHB (pH 7.4), 5 μM.
The mark [8] stands for this setting: E. coli in 1:4 CA-MHB (pH 7.4), 10 μM.
[9] abbreviates: E. coli in LPM (pH 5.5), 0.25 μM.
Setting [10] is: E. coli in LPM (pH 5.5), 0.5 μM.
The mark [11] stands for this setting: E. coli in LPM (pH 5.5), 2.5 μM.
Where [12] appears, read: TC7 cells infected with GFP-expressing S. flexneri, 14 h treatment.

In the case of `CS[C@H]1SC[C@H]2C(=O)N(C)[C@@H](C(C)C)C(=O)OC[C@@H](NC(=O)c3cnc4ccccc4n3)C(=O)N[C@@H](C)C(=O)N(C)[C@@H]1C(=O)N(C)[C@@H](C(C)C)C(=O)OC[C@@H](NC(=O)c1cnc3ccccc3n1)C(=O)N[C@@H](C)C(=O)N2C` [Echinomycin], the “Log10(CFU/ml), Replicate #1” value in test [1] (setting [3]) was 9.431 Log10(CFU/ml); in test [1] (setting [4]), 9.415 Log10(CFU/ml); in test [1] (setting [5]), 9.380 Log10(CFU/ml); in test [1] (setting [6]), 9.398 Log10(CFU/ml); in test [1] (setting [7]), 9.362 Log10(CFU/ml); in test [1] (setting [8]), 8.342 Log10(CFU/ml). Also, the “Log10(CFU/ml), Replicate #1” value was 6.778 Log10(CFU/ml) in test [1] (setting [9]); 6.954 Log10(CFU/ml) in test [1] (setting [10]); 6.954 Log10(CFU/ml) in test [1] (E. coli in LPM (pH 5.5), 1 μM); 6.954 Log10(CFU/ml) in test [1] (setting [11]); 6.778 Log10(CFU/ml) in test [1] (E. coli in LPM (pH 5.5), 5 μM); 6.279 Log10(CFU/ml) in test [1] (E. coli in LPM (pH 5.5), 10 μM). The “Log10(CFU/ml), Replicate #2” value in test [1] (setting [3]) is on record as 8.699 Log10(CFU/ml); in test [1] (setting [4]), 9.079 Log10(CFU/ml); in test [1] (setting [5]) it was 9.114 Log10(CFU/ml); in test [1] (setting [6]), 8.699 Log10(CFU/ml); in test [1] (setting [7]), 8.477 Log10(CFU/ml); in test [1] (setting [8]) it was 8.079 Log10(CFU/ml). Besides, the “Log10(CFU/ml), Replicate #2” value in test [1] (setting [9]) is listed as 7.114 Log10(CFU/ml); in test [1] (setting [10]) it was 6.954 Log10(CFU/ml); in test [1] (E. coli in LPM (pH 5.5), 1 μM) it was 7.255 Log10(CFU/ml); in test [1] (setting [11]) it was 6.845 Log10(CFU/ml); in test [1] (E. coli in LPM (pH 5.5), 5 μM) it was 7.342 Log10(CFU/ml); in test [1] (E. coli in LPM (pH 5.5), 10 μM) it was 6.362 Log10(CFU/ml). The “Log10(CFU/ml), Replicate #3” value is 8.505 Log10(CFU/ml) in test [1] (setting [3]); 8.447 Log10(CFU/ml) in test [1] (setting [4]); 8.398 Log10(CFU/ml) in test [1] (setting [5]); 8.398 Log10(CFU/ml) in test [1] (setting [6]); 8.477 Log10(CFU/ml) in test [1] (setting [7]); 8.342 Log10(CFU/ml) in test [1] (setting [8]). Also, the “Log10(CFU/ml), Replicate #3” value in test [1] (setting [9]) is reported as 8.398 Log10(CFU/ml); in test [1] (setting [10]) it was 8.000 Log10(CFU/ml); in test [1] (E. coli in LPM (pH 5.5), 1 μM), 8.301 Log10(CFU/ml); in test [1] (setting [11]), 8.230 Log10(CFU/ml); in test [1] (E. coli in LPM (pH 5.5), 5 μM), 8.204 Log10(CFU/ml); in test [1] (E. coli in LPM (pH 5.5), 10 μM) it was 6.602 Log10(CFU/ml). The “Δlog10(CFU/ml)” value in test [1] (E. coli in 1:4 CA-MHB (pH 7.4), 0.25 μM, average killing vs before treatment (8.977)) was 0.099 log10(CFU/ml); in test [1] (E. coli in 1:4 CA-MHB (pH 7.4), 0.5 μM, average killing vs before treatment (8.977)) it was -0.003 log10(CFU/ml); in test [1] (E. coli in 1:4 CA-MHB (pH 7.4), 1 μM, average killing vs before treatment (8.977)), 0.013 log10(CFU/ml); in test [1] (E. coli in 1:4 CA-MHB (pH 7.4), 2.5 μM, average killing vs before treatment (8.977)) it was 0.146 log10(CFU/ml); in test [1] (E. coli in 1:4 CA-MHB (pH 7.4), 5 μM, average killing vs before treatment (8.977)), 0.205 log10(CFU/ml); in test [1] (E. coli in 1:4 CA-MHB (pH 7.4), 10 μM, average killing vs before treatment (8.977)) it was 0.723 log10(CFU/ml). Moreover, the “Δlog10(CFU/ml)” value in test [1] (E. coli in LPM (pH 5.5), 0.25 μM, average killing vs before treatment (7.350)) was -0.080 log10(CFU/ml); in test [1] (E. coli in LPM (pH 5.5), 0.5 μM, average killing vs before treatment (7.350)), 0.048 log10(CFU/ml); in test [1] (E. coli in LPM (pH 5.5), 1 μM, average killing vs before treatment (7.350)) it was -0.153 log10(CFU/ml); in test [1] (E. coli in LPM (pH 5.5), 2.5 μM, average killing vs before treatment (7.350)) it was 0.007 log10(CFU/ml); in test [1] (E. coli in LPM (pH 5.5), 5 μM, average killing vs before treatment (7.350)), -0.091 log10(CFU/ml); in test [1] (E. coli in LPM (pH 5.5), 10 μM, average killing vs before treatment (7.350)), 0.936 log10(CFU/ml).

Regarding `CN1C[C@@H]2C[C@H]1CN2c1cc2c(cc1F)c(=O)c(C(=O)O)cn2C1CC1` [Danofloxacin], in test [2], the IC50 was determined as 52 nM. Also, in test [2] (setting [12]), the “Fluorescence intensity (RFU), Mean, 0.25 x MIC” value worked out at 9638.21 RFU; the “Fluorescence intensity (RFU), Mean, 0.5 x MIC” value is given as 8906.42 RFU; the “Fluorescence intensity (RFU), Mean, 2 x MIC” value turned out to be 3750.58 RFU; the “Fluorescence intensity (RFU), Mean, 4 x MIC” value was determined as 3092.69 RFU. Also, in test [2] (setting [12]), the “Fluorescence intensity (RFU), Mean, 8 x MIC” value turned out to be 2319.78 RFU; the “Fluorescence intensity (RFU), Mean, 16 x MIC” value was determined as 1798.5 RFU; the “Fluorescence intensity (RFU), Mean, 32 x MIC” value turned out to be 1629.06 RFU; the “Fluorescence intensity (RFU), Mean, MIC” value is given as 4339.36 RFU.

Consider `C=C[C@]1(C)C[C@@H](OC(=O)CSC(C)(C)CNC(=O)[C@H](N)C(C)C)[C@]2(C)[C@H](C)CC[C@]3(CCC(=O)[C@H]32)[C@@H](C)[C@@H]1O` [Valnemulin], for which the “bactericidal activity against non-growing UPEC (CFU counting)” value in test [1] (24 h treatment of stationary phase culture) was “not bactericidal”.

For `CCN1CCN(c2cc3c(cc2F)c(=O)c(C(=O)O)cn3C2CC2)CC1` [Enrofloxacin], the IC50 in test [2] came out at 36 nM. The “Fluorescence intensity (RFU), Mean, 0.125 x MIC” value in test [2] (TC7 cells infected with GFP-expressing S. flexneri, 14 h treatment, 0.125 x MIC) is on record as 8510.46 RFU. Besides, in test [2] (setting [12]), the “Fluorescence intensity (RFU), Mean, 0.25 x MIC” value is given as 7346.62 RFU; the “Fluorescence intensity (RFU), Mean, 0.5 x MIC” value came to 6043.88 RFU; the “Fluorescence intensity (RFU), Mean, 2 x MIC” value is 2710.72 RFU; the “Fluorescence intensity (RFU), Mean, 4 x MIC” value was determined as 1953.94 RFU. Moreover, in test [2] (setting [12]), the “Fluorescence intensity (RFU), Mean, 8 x MIC” value stood at 1617.72 RFU; the “Fluorescence intensity (RFU), Mean, 16 x MIC” value was 1488.39 RFU; the “Fluorescence intensity (RFU), Mean, 32 x MIC” value is reported as 1501.89 RFU; the “Fluorescence intensity (RFU), Mean, MIC” value is 3054.19 RFU.

As to `CC[C@H]1OC(=O)C[C@@H](O)[C@H](C)[C@@H](O[C@@H]2O[C@H](C)C[C@H](N(C)C)[C@H]2O)[C@@H](CC=O)C[C@@H](C)C(=O)/C=C/[C@]2(C)O[C@H]2[C@@H]1C` [Rosamicin], the IC50 in test [2] worked out at 23600 nM. In test [2] (setting [12]), the “Fluorescence intensity (RFU), Mean, 0.25 x MIC” value is 9383.2 RFU; the “Fluorescence intensity (RFU), Mean, 0.5 x MIC” value was found to be 8207.86 RFU; the “Fluorescence intensity (RFU), Mean, 2 x MIC” value is 3601.92 RFU; the “Fluorescence intensity (RFU), Mean, 4 x MIC” value came out at 1830.75 RFU. Also, the “Fluorescence intensity (RFU), Mean, MIC” value in test [2] (setting [12]) was 6316.33 RFU.
